Results reported in US20030171329A1, “Stable compositions comprising tezacitabine” (priority 2002, published 2003).
Like-named read-outs stand apart in the source and are kept apart here.

Key:
[1] = Description: In this study the stabilty of FMdC glutamate and glycine buffers at pH 8.5 to 9.5 was evaluated at various storage conditions (5°, 25°, 35°, 45°, and 55° C.). FMdC solutions were made up at 1 mg/mL in 7.1 mg/mL monosodium glutamate monohydrate (38 mM) or 2.8 mg/mL glycine (37 mM) and pH adjusted to target with sodium hydroxide. Solution samples were placed in stoppered glass vials and stored at the various temperatures. […] Detention was by UV at 268 nm.
The higher-temperature data can be evaluated further by Arrhenius analysis to predict shelf lives at lower temperatures. First-order rate constants are determined by fitting the concentration and time data to an equation of the form C(t)=C(0)·exp (−k·t), where C(t) is the concentration at time t, C(0) is the concentration at time 0, t is the time, and k is the first-order rate constant. The rate constants are in turn fitted to an equation of the form k (T)=A·exp (−Ea/RT), where k(T) is the rate constant at temperature T, Ea is the energy of activation, R is the gas constant, T is the absolute temperature (in ° K), and A is a constant.

[2] = Stability of tezacitabine in unbuffered aqueous solution; type: physicochemical
[3] = Glutamate pH 8.5 buffer, 5° C., 24 weeks
[4] = Glutamate pH 8.5 buffer, 25° C., 0 weeks
[5] = Glutamate pH 8.5 buffer, 25° C., 4 weeks
[6] = Glutamate pH 8.5 buffer, 25° C., 16 weeks
[7] = Glutamate pH 8.5 buffer, 25° C., 24 weeks
[8] = Glutamate pH 8.5 buffer, 35° C., 0 weeks
[9] = Glutamate pH 8.5 buffer, 35° C., 4 weeks
[10] = Glutamate pH 8.5 buffer, 35° C., 16 weeks
[11] = Glutamate pH 8.5 buffer, 35° C., 24 weeks
[12] = Glutamate pH 8.5 buffer, 45° C., 0 weeks
[13] = Glutamate pH 8.5 buffer, 45° C., 4 weeks
[14] = Glutamate pH 9.0 buffer, 5° C., 24 weeks
[15] = Glutamate pH 9.0 buffer, 25° C., 0 weeks
[16] = Glutamate pH 9.0 buffer, 25° C., 4 weeks
[17] = Glutamate pH 9.0 buffer, 25° C., 16 weeks
[18] = Glutamate pH 9.0 buffer, 25° C., 24 weeks
[19] = Glutamate pH 9.0 buffer, 35° C., 0 weeks
[20] = Glutamate pH 9.0 buffer, 35° C., 4 weeks
[21] = Glutamate pH 9.0 buffer, 35° C., 16 weeks
[22] = Glutamate pH 9.0 buffer, 35° C., 24 weeks
[23] = Glutamate pH 9.0 buffer, 45° C., 0 weeks
[24] = Glutamate pH 9.0 buffer, 45° C., 4 weeks
[25] = Glutamate pH 9.5 buffer, 5° C., 24 weeks
[26] = Glutamate pH 9.5 buffer, 25° C., 0 weeks
[27] = Glutamate pH 9.5 buffer, 25° C., 4 weeks
[28] = Glutamate pH 9.5 buffer, 25° C., 16 weeks
[29] = Glutamate pH 9.5 buffer, 25° C., 24 weeks
[30] = Glutamate pH 9.5 buffer, 35° C., 0 weeks
[31] = Glutamate pH 9.5 buffer, 35° C., 4 weeks
[32] = Glutamate pH 9.5 buffer, 35° C., 16 weeks
[33] = Glutamate pH 9.5 buffer, 35° C., 24 weeks
[34] = Glutamate pH 9.5 buffer, 45° C., 0 weeks
[35] = Glutamate pH 9.5 buffer, 45° C., 4 weeks
[36] = Glycine pH 9.0 buffer, 5° C., 24 weeks
[37] = Glycine pH 9.0 buffer, 25° C., 0 weeks
[38] = Glycine pH 9.0 buffer, 25° C., 4 weeks
[39] = Glycine pH 9.0 buffer, 25° C., 16 weeks
[40] = Glycine pH 9.0 buffer, 25° C., 24 weeks
[41] = Glycine pH 9.0 buffer, 35° C., 0 weeks
[42] = Glycine pH 9.0 buffer, 35° C., 16 weeks
[43] = Glycine pH 9.0 buffer, 35° C., 24 weeks
[44] = Glycine pH 9.0 buffer, 45° C., 0 weeks

stability in words ([1]; 1 mg/mL): stable for almost 6 months
predicted first-order rate constant of degradation ([1]; 1 mg/mL, pH 9): 3.0·10^−4 week^−1
FMdC ([1]; Glutamate pH 8.5 buffer, 5° C., 12 weeks): 1.00 mg/mL
pH ([1]; Glutamate pH 8.5 buffer, 5° C., 16 weeks): 8.63
FMdC [1, 3]: 1.00 mg/mL
pH [1, 3]: 8.66
FMdC [1, 4]: 1.00 mg/mL
pH [1, 4]: 8.50
FMdC [1, 5]: 1.00 mg/mL
pH [1, 5]: 8.55
FMdC [1, 6]: 0.99 mg/mL
pH [1, 6]: 7.93
FMdC [1, 7]: 0.99 mg/mL
pH [1, 7]: 8.64
FMdC [1, 8]: 1.00 mg/mL
pH [1, 8]: 8.50
FMdC [1, 9]: 1.00 mg/mL
pH [1, 9]: 8.55
FMdC [1, 10]: 0.97 mg/mL
pH [1, 10]: 8.59
FMdC [1, 11]: 0.95 mg/mL
pH [1, 11]: 8.58
FMdC [1, 12]: 1.00 mg/mL
pH [1, 12]: 8.50
FMdC [1, 13]: 0.98 mg/mL
pH [1, 13]: 8.56
FMdC ([1]; Glutamate pH 8.5 buffer, 45° C., 16 weeks): 0.85 mg/mL
FMdC ([1]; Glutamate pH 8.5 buffer, 45° C., 24 weeks): 0.47 mg/mL
FMdC ([1]; Glutamate pH 8.5 buffer, 55° C., 0 weeks): 1.00 mg/mL
FMdC ([1]; Glutamate pH 8.5 buffer, 55° C., 2 weeks): 0.91 mg/mL
FMdC ([1]; Glutamate pH 8.5 buffer, 55° C., 4 weeks): 0.72 mg/mL
FMdC ([1]; Glutamate pH 8.5 buffer, 55° C., 8 weeks): 0.03 mg/mL
FMdC ([1]; Glutamate pH 9.0 buffer, 5° C., 12 weeks): 1.00 mg/mL
pH ([1]; Glutamate pH 9.0 buffer, 5° C., 16 weeks): 9.10
FMdC [1, 14]: 1.00 mg/mL
pH [1, 14]: 9.05
FMdC [1, 15]: 1.01 mg/mL
pH [1, 15]: 9.00
FMdC [1, 16]: 1.01 mg/mL
pH [1, 16]: 9.07
FMdC [1, 17]: 0.99 mg/mL
pH [1, 17]: 8.80
FMdC [1, 18]: 0.99 mg/mL
pH [1, 18]: 9.09
FMdC [1, 19]: 1.01 mg/mL
pH [1, 19]: 9.00
FMdC [1, 20]: 1.01 mg/mL
pH [1, 20]: 9.06
FMdC [1, 21]: 0.98 mg/mL
pH [1, 21]: 9.08
FMdC [1, 22]: 0.98 mg/mL
pH [1, 22]: 9.08
FMdC [1, 23]: 1.01 mg/mL
pH [1, 23]: 9.00
FMdC [1, 24]: 0.99 mg/mL
pH [1, 24]: 9.04
FMdC ([1]; Glutamate pH 9.0 buffer, 45° C., 16 weeks): 0.92 mg/mL
FMdC ([1]; Glutamate pH 9.0 buffer, 45° C., 24 weeks): 0.88 mg/mL
FMdC ([1]; Glutamate pH 9.0 buffer, 55° C., 0 weeks): 1.01 mg/mL
FMdC ([1]; Glutamate pH 9.0 buffer, 55° C., 2 weeks): 0.96 mg/mL
FMdC ([1]; Glutamate pH 9.0 buffer, 55° C., 4 weeks): 0.91 mg/mL
FMdC ([1]; Glutamate pH 9.0 buffer, 55° C., 8 weeks): 0.78 mg/mL
FMdC ([1]; Glutamate pH 9.5 buffer, 5° C., 12 weeks): 1.00 mglmL
pH ([1]; Glutamate pH 9.5 buffer, 5° C., 16 weeks): 9.54
FMdC [1, 25]: 1.01 mglmL
pH [1, 25]: 9.57
FMdC [1, 26]: 1.00 mglmL
pH [1, 26]: 9.50
FMdC [1, 27]: 1.00 mglmL
pH [1, 27]: 9.53
FMdC [1, 28]: 1.00 mglmL
pH [1, 28]: 9.55
FMdC [1, 29]: 0.99 mglmL
pH [1, 29]: 9.57
FMdC [1, 30]: 1.00 mglmL
pH [1, 30]: 9.50
FMdC [1, 31]: 1.00 mglmL
pH [1, 31]: 9.54
FMdC [1, 32]: 0.98 mglmL
pH [1, 32]: 9.59
FMdC [1, 33]: 0.97 mglmL
pH [1, 33]: 9.62
FMdC [1, 34]: 1.00 mglmL
pH [1, 34]: 9.50
FMdC [1, 35]: 0.99 mglmL
pH [1, 35]: 9.56
FMdC ([1]; Glutamate pH 9.5 buffer, 45° C., 16 weeks): 0.92 mglmL
FMdC ([1]; Glutamate pH 9.5 buffer, 45° C., 24 weeks): 0.89 mglmL
FMdC ([1]; Glutamate pH 9.5 buffer, 55° C., 0 weeks): 1.00 mglmL
FMdC ([1]; Glutamate pH 9.5 buffer, 55° C., 2 weeks): 0.97 mglmL
FMdC ([1]; Glutamate pH 9.5 buffer, 55° C., 4 weeks): 0.93 mglmL
FMdC ([1]; Glutamate pH 9.5 buffer, 55° C., 8 weeks): 0.82 mglmL
FMdC ([1]; Glycine pH 9.0 buffer, 5° C., 12 weeks): 1.01 mg/mL
pH ([1]; Glycine pH 9.0 buffer, 5° C., 16 weeks): 9.30
FMdC [1, 36]: 1.00 mg/mL
pH [1, 36]: 9.33
FMdC [1, 37]: 1.00 mg/mL
pH [1, 37]: 9.00
FMdC [1, 38]: 1.01 mg/mL
pH [1, 38]: 9.33
FMdC [1, 39]: 1.00 mg/mL
pH [1, 39]: 9.30
FMdC [1, 40]: 0.99 mg/mL
pH [1, 40]: 9.32
FMdC [1, 41]: 1.00 mg/mL
pH [1, 41]: 9.00
pH ([1]; Glycine pH 9.0 buffer, 35° C., 4 weeks): 9.32
FMdC [1, 42]: 0.98 mg/mL
pH [1, 42]: 9.32
FMdC [1, 43]: 0.97 mg/mL
pH [1, 43]: 9.31
FMdC [1, 44]: 1.00 mg/mL
pH [1, 44]: 9.00
FMdC ([1]; Glycine pH 9.0 buffer, 45° C., 4 weeks): 0.99 mg/mL
FMdC ([1]; Glycine pH 9.0 buffer, 45° C., 16 weeks): 0.92 mg/mL
FMdC ([1]; Glycine pH 9.0 buffer, 45° C., 24 weeks): 0.88 mg/mL
FMdC ([1]; Glycine pH 9.0 buffer, 55° C., 0 weeks): 1.00 mg/mL
FMdC ([1]; Glycine pH 9.0 buffer, 55° C., 4 weeks): 0.91 mg/mL
shelf-life (time at which 5% degradation would be expected) ([1]; pH 9): several years
pH before storage ([2]; 35° C., start): about 7.2
loss of drug (HPLC) ([2]; 35° C., within 4 days): greater than 90%
pH after storage ([2]; 35° C., within 4 days): about 4.3
SMILES: Nc1ccn([C@@H]2O[C@H](CO)[C@@H](O)/C2=C\F)c(=O)n1 [FMdC, (E)-2′-deoxy-2′-(fluoromethylene)cytidine]
colour change of solution, indicative of degradation ([2]; room temperature, within five days): changes from colorless to yellow to light brown
